Test results from patent publication US20130330412A1, “SMART POLYMERIC NANOPARTICLES WHICH OVERCOME MULTIDRUG RESISTANCE TO CANCER THERAPEUTICS AND TREATMENT-RELATED SYSTEMIC TOXICITY” (THE JOHNS HOPKINS UNIVERSITY, priority 2010, published 2013).

Legend:
C57BL/6 wild-type mice [1] = assay: Hemoglobin and leukocyte counts in cardiotoxicity study (FIG. 16d); type: in vivo; conditions: 9 mg/kg DOX equivalent i.v. once weekly for 4 weeks
Description: C57BL6/J mice received an equivalent weekly cumulative dose of free doxorubicin, commercially available liposomal formulation of doxorubicin (Doxil), NanoDox, NanoDoxCurc, or vehicle only for 4 weeks. One week after the last dose, various cardiac parameters were examined by echocardiogram followed by collection of blood by cardiac puncture. […] (d) Hemoglobin and leukocyte counts from blood samples from each treatment arm.
Blood samples were collected from experimental animals by cardiac puncture and hearts were collected for histological and molecular studies.

C57BL/6 wild-type mice [2] = assay: Glutathione and glutathione peroxidase (GPx) in mouse heart lysates; type: in vivo
Protocol: To evaluate the degree of oxidative stress in treated mice, levels of the antioxidants glutathione and glutathione peroxidase (GPx) were evaluated by western blot and ELISA, respectively, in mouse heart lysates.

[3] = cited from earlier work
BxPC3 = assay: In vitro cell viability (MTT) assay with gemcitabine, BxPC3 (FIG. 9); type: cell-based, human; conditions: BxPC3, 96 hours
Protocol: FIG. 9 illustrates in vitro cell viability (MTT assay) performed using the water-soluble drug gemcitabine conjugated to the acrylic acid (AA) surface reactive functional group of polymeric nanoparticle. Unlike the poorly water drugs that are encapsulated within the nanoparticle, water soluble drugs like gemcitabine can be conjugated to the nanoparticle surface, rendering this compound amenable to oral delivery. Human pancreatic cancer cell line BxPC3 is incubated with increasing dosages of either free gemcitabine (black bar), nano-gemcitabine (white bar), void polymer (grey bar), or PBS solvent (patterned bar). UT=untreated. […] All assays were performed in triplicate and means and standard deviations are plotted.
Gemcitabine is a water soluble compound, and thus differs from the poorly water soluble drugs discussed above that are encapsulated within the hydrophobic core of the polymeric nanoparticles. Herein, we describe the chemical conjugation of gemcitabine, as one illustrative example of water soluble drugs, to the hydrophilic surface of the polymeric nanoparticles. Such conjugation is expected to render gemcitabine amenable to oral delivery, utilizing the oral bioavailability properties of the said polymeric nanoparticles used as a carrier. 10 mg of NMA622 polymeric nanoparticles were dispersed in 10 ml of water by vortexing. […]

[4] = Solubilization of poorly water soluble drugs in water (FIG. 2); type: physicochemical; conditions: visual
[5] = Blood levels of rapamycin 2 hours after oral delivery (FIG. 10); type: in vivo, C57/B6 mice; conditions: 15 mg/kg rapamycin equivalent, 2 hours post delivery, HPLC
Description: FIG. 10 illustrates blood levels of rapamycin following oral delivery of polymeric nanoparticles. Rapamycin was encapsulated in nanoparticles comprised of increasing order of acrylic acid (AA) percentage in the co-polymeric composition. The nanoparticles were either administered as is, or after surface PEGylation. Compared are: Control A (rapamycin suspended in water); rapamycin nanoparticle comprised of NIPAAM:VP:AA in a ratio of 60:30:10 (designated as NVA631); rapamycin nanoparticle comprised of NIPAAM:VP:AA in a ratio of 60:20:20 (designated as NVA622); rapamycin nanoparticle comprised of NIPAAM:VP:AA in a ratio of 60:10:30 (designated as NVA613); and rapamycin nanoparticle comprised of NIPAAM:MMA:AA in a ratio of 60:20:20 (designated as NMA622). The corresponding PEGylated nanoparticles (PEG-NVA-631, PEG-NVA-622, PEG-NVA-613, and PEG-NMA-622) encapsulating rapamycin are designated as shaded bars. […] Blood levels are measured by HPLC from samples obtained at 2 hours post oral delivery.
Rapamycin is a poorly water soluble drug that has low oral bioavailability. […] At 2 hours post oral administration, the mice were bled and rapamycin concentrations in the blood were determined by high performance liquid chromatography (HPLC). […]

SMILES: COc1cccc2c1C(=O)c1c(O)c3c(c(O)c1C2=O)C[C@@](O)(C(=O)CO)C[C@@H]3O[C@H]1C[C@H](N)[C@H](O)[C@H](C)O1 [DOX, doxorubicin]
- Hemoglobin and leukocyte counts (C57BL/6 wild-type mice [1]): reduced
- Hemoglobin (Hb) level, average (C57BL/6 wild-type mice [1]; control 12.5 g/dL): 7.5 g/dL
- glutathione level (western blot) (C57BL/6 wild-type mice [2]): marked decrease
- glutathione peroxidase (GPx) level (ELISA) (C57BL/6 wild-type mice [2]): marked decrease
- patients developing congestive heart failure (CHF) ([3]; cumulative dose of 550 mg/m2): 26%
- frequency of CHF in pediatric acute lymphoblastic leukemia (ALL) patients ([3]; pediatric ALL patients): ≤ 57%

SMILES: Nc1ccn([C@@H]2O[C@H](CO)[C@@H](O)C2(F)F)c(=O)n1 [free gemcitabine, gemcitabine]
- activity in cell viability assay (BxPC3): comparable activity

SMILES: CC(=O)O[C@H]1C(=O)[C@@]2(C)[C@H]([C@H](OC(=O)c3ccccc3)[C@]3(O)C[C@H](OC(=O)[C@H](O)[C@@H](NC(=O)c4ccccc4)c4ccccc4)C(C)=C1C3(C)C)[C@]1(OC(C)=O)CO[C@@H]1C[C@@H]2O [free paclitaxel, paclitaxel]
- solubility in water (turbidity / transparency of solution) [4]: essentially insoluble in water

SMILES: CO[C@H]1C[C@@H]2CC[C@@H](C)[C@@](O)(O2)C(=O)C(=O)N2CCCC[C@H]2C(=O)O[C@H]([C@H](C)C[C@@H]2CC[C@@H](O)[C@H](OC)C2)CC(=O)[C@H](C)/C=C(\C)[C@@H](O)[C@@H](OC)C(=O)[C@H](C)C[C@H](C)/C=C/C=C/C=C/1C [free rapamycin, rapamycin]
- solubility in water (turbidity / transparency of solution) [4]: essentially insoluble in water
- blood levels of rapamycin [5]: essentially undetectable

SMILES: CO[C@H]1/C=C/O[C@@]2(C)Oc3c(C)c(O)c4c(O)c(c(/C=N/N5CCN(C)CC5)c(O)c4c3C2=O)NC(=O)/C(C)=C\C=C\[C@H](C)[C@H](O)[C@@H](C)[C@@H](O)[C@@H](C)[C@H](OC(C)=O)[C@@H]1C [free rifampicin, rifampicin]
- solubility in water (turbidity / transparency of solution) [4]: essentially insoluble in water
